The test system of this experiment is MDA-MB-231 (231), PC3, and HeLa cells. Description: Mitotic arrest (MA) by flow cytometry (MPM2/PI), across cell lines. Type of experiment: cell-based. The note with it: coarse-grained categories. As for the experimental part:
Trypsinized cells were resuspended in PBS at 10^6 cells/ml. Cells were then fixed by addition of ice-cold 70% ethanol. Ethanol-fixed cells were kept overnight at 4° C. before staining. Cells were pelleted and washed twice with PBS. Cell pellets were incubated for an hour at room temperature with mouse anti-MPM-2 antibody (Millipore, Mass., USA), followed by 1 h incubation with Alexa-488 anti-mouse secondary antibody (Life Technologies, NY, USA). Finally cells were washed, pelleted and resuspended in propidium iodide-containing isotonic buffer (0.1 mg/mL) and 0.5% Triton X-100. Cell cycle distribution was determined by flow cytometry using an LSR Fortessa Flow cytometer (BD Biosciences, CA, USA) and analyzed using Flowjo software (Tree Star, OR, USA).
To evaluate the impact of putative declustering drugs on cell cycle progression and hypodiploidy (<2N DNA content, which may indicate apoptotic cells), MDA-MB-231 (231), PC3, and HeLa cells were treated with different concentrations of declustering drugs, stained with propidium iodide, labeled with anti-MPM2 antibody, and then assessed by flow cytometry at multiple time points over 48 h. […] The duration, highest degree, and rapidity of onset of MA varied between drugs, drug concentrations, and cell lines (FIGS. 2A, 2B). In general, the maximum MA achieved was less pronounced in Nos- and PJ-treated cells (FIGS. 2A, 2B). […]

A value given as a limit tells only on which side of the number the result lay.

Turning to reduced bromonoscapine [RBN], the “peak MA (MA:HR), cells in MA” value was no less than 30%.

Values taken from patent US20150309031A2, “COMPOSITIONS AND METHODS FOR PROGNOSIS AND TREATMENT OF CANCER” (NOVAZOI THERANOSTICS, priority 2013, published 2015).
